Assay results from EP4613859A1, “TLR SIGNALING INHIBITORY PEPTIDE AND COMPOSITION INCLUDING SAME FOR PREVENTION OR TREATMENT OF INFLAMMATORY DISEASES” (Korea Institute of Science and Technology, priority 2022, dated 2025).

Key:
[1] = tested on: human MAL; assay: Phage display screening of TIR domain-derived peptide library against immobilized MAL, NGS analysis after four rounds; type: binding; conditions: for NGS count: phages remaining after fourth round
Method: (§1) First, vector cloning was performed by synthesizing a DNA sequence for expressing each peptide belonging to the library constructed in Example 1. Vector cloning was performed using p3/p8 phagemids.
(§2) After the fourth round, the remaining phages were obtained by binding to the finally immobilized target proteins, and peptide sequences binding to the target and the relative distribution of each sequence were confirmed by performing NGS analysis on phagemids in the phages.

[2] = tested on: human MYD88; assay: Phage display screening of TIR domain-derived peptide library against immobilized MyD88, NGS analysis after four rounds; type: binding; conditions: for NGS count: phages remaining after fourth round
Method: as §1, §2

[3] = P3_MAL: library displayed on P3 coat protein
[4] = P3_MAL: relative distribution of the sequence in NGS
[5] = P3_MyD88: library displayed on P3 coat protein
[6] = P3_MyD88: relative distribution of the sequence in NGS
[7] = P8_MyD88: library displayed on P8 coat protein
[8] = P8_MyD88: relative distribution of the sequence in NGS
[9] = P8_MAL: library displayed on P8 coat protein
[10] = P8_MAL: relative distribution of the sequence in NGS

**Q.** RLLKWKEALHQFHSWV was tested. Which NGS count [1, 3] did it give?
**A.** 14924

**Q.** And the Population [1, 4]?
**A.** 5.61%

**Q.** Which NGS count [2, 5] does the source give for PSEVRKQTGSLAKAFA here?
**A.** 2253

**Q.** What about the Population [2, 6] of the same sequence?
**A.** 0.66%

**Q.** Which results are given for SPQEQDGFWVRLIEAL?
**A.** NGS count [2, 7]: 1842; Population [2, 8]: 0.71%

**Q.** WFLTAFRMAMDQVADT was tested. Which NGS count [1, 9] did it give?
**A.** 353

**Q.** Which NGS count [2, 5] does the source give for DHHLDLPRGKAIKPEILG here?
**A.** 26722

**Q.** And the Population [2, 6]?
**A.** 7.78%

**Q.** And the NGS count [1, 3]?
**A.** 2280

**Q.** What about the Population [1, 4] of the same sequence?
**A.** 0.86%

**Q.** How did the NGS count [1, 3] turn out when FLNFRGLDVRNYFLGH was run?
**A.** 2855

**Q.** And the Population [1, 4]?
**A.** 1.07%

**Q.** Which NGS count [1, 9] does the source give for WALQELVKILQAKIFL here?
**A.** 227

**Q.** What about the Population [1, 10] of the same sequence?
**A.** 0.07%

**Q.** For WDFASNMEQFWDRLYY, which NGS count [2, 7] is on record?
**A.** 7352

**Q.** What about the Population [2, 8] of the same sequence?
**A.** 2.83%

**Q.** Which NGS count [2, 5] does the source give for PEKDNGGENAFINNIV here?
**A.** 2498

**Q.** And the Population [2, 6]?
**A.** 0.73%

**Q.** How did the NGS count [2, 5] turn out when ESILNQLRRSSQSIAN was run?
**A.** 1976

**Q.** What about the Population [2, 6] of the same sequence?
**A.** 0.58%

**Q.** What about the NGS count [1, 3] of the same sequence?
**A.** 3680

**Q.** What about the Population [1, 4] of the same sequence?
**A.** 1.38%

**Q.** Which results are given for IDDDHLTYLVRLLLSR?
**A.** NGS count [2, 7]: 3059; Population [2, 8]: 1.18%

**Q.** Which NGS count [2, 7] does the source give for VANILGYHWIDWEYFV here?
**A.** 2029

**Q.** What about the Population [2, 8] of the same sequence?
**A.** 0.78%

**Q.** What does the source list for FLSYRALEKRFGPIGQ?
**A.** NGS count [2, 5]: 3289; Population [2, 6]: 0.96%

**Q.** Which results are given for PQDLEWFYERLVSLIL?
**A.** NGS count [2, 7]: 10568; Population [2, 8]: 4.07%

**Q.** What does the source list for DPQDLDWFYERLVSLL?
**A.** NGS count [2, 7]: 13137; Population [2, 8]: 5.06%

**Q.** What does the source list for SENYATSPWALDELVL?
**A.** NGS count [2, 5]: 5494; Population [2, 6]: 1.89%

**Q.** NGHESEIIKEIVDTIV was tested. Which NGS count [2, 5] did it give?
**A.** 4233

**Q.** And the Population [2, 6]?
**A.** 1.23%

**Q.** For WALDELLKILYANETM, which NGS count [2, 7] is on record?
**A.** 10515

**Q.** And the Population [2, 8]?
**A.** 4.05%

**Q.** How did the NGS count [2, 7] turn out when YLRADDSWFWEKLLYA was run?
**A.** 4067

**Q.** What about the Population [2, 8] of the same sequence?
**A.** 1.57%

**Q.** PNLRTKVLNYLMRTKT was tested. Which NGS count [1, 3] did it give?
**A.** 26931

**Q.** And the Population [1, 4]?
**A.** 10.12%

**Q.** What does the source list for AFFWEQLRTVLGKPTM?
**A.** NGS count [1, 9]: 11826; Population [1, 10]: 3.65%

**Q.** With FTLAVHVRNWLVGGFI as the sequence, how does the NGS count [1, 9] read?
**A.** 520

**Q.** With LGYHWIDWEYFVGIED as the sequence, how does the NGS count [2, 7] read?
**A.** 25216

**Q.** And the Population [2, 8]?
**A.** 9.72%

**Q.** How did the NGS count [1, 9] turn out when WFYERLVSLILRDTKV was run?
**A.** 79000

**Q.** What about the Population [1, 10] of the same sequence?
**A.** 24.40%

**Q.** Which NGS count [1, 9] does the source give for YLISYIFNELARAGFS here?
**A.** 295

**Q.** And the Population [1, 10]?
**A.** 0.09%

**Q.** Which results are given for HLLKEFDKKLITAFKD?
**A.** NGS count [2, 5]: 2399; Population [2, 6]: 0.70%

**Q.** How did the NGS count [2, 7] turn out when YAASPWWFDELVKIVG was run?
**A.** 3433

**Q.** And the Population [2, 8]?
**A.** 1.32%

**Q.** For HWIDWEYFVGIEDHIK, which NGS count [2, 7] is on record?
**A.** 3422

**Q.** What about the Population [2, 8] of the same sequence?
**A.** 1.32%

**Q.** Which results are given for LFFWESLKQLLRSDGR?
**A.** NGS count [1, 9]: 22560; Population [1, 10]: 5.97%

**Q.** What does the source list for KWFWDKLIYALSRNPH?
**A.** NGS count [1, 3]: 2796; Population [1, 4]: 1.05%

**Q.** Which results are given for AFFWAQLKSVLGNPTM?
**A.** NGS count [1, 9]: 28801; Population [1, 10]: 8.90%

**Q.** Which NGS count [2, 5] does the source give for RKGDLISDELLIAIEE here?
**A.** 2452

**Q.** And the Population [2, 6]?
**A.** 0.71%

**Q.** For KLIQGWFLYRLLKIEQ, which NGS count [1, 9] is on record?
**A.** 2068

**Q.** Which results are given for DYASSTWWLRELLQIA?
**A.** NGS count [2, 7]: 4111; Population [2, 8]: 1.58%

**Q.** For WALDELLQILHARELF, which NGS count [2, 7] is on record?
**A.** 14404

**Q.** What about the Population [2, 8] of the same sequence?
**A.** 5.55%

**Q.** With HFFWIQLKSILGETSF as the sequence, how does the NGS count [1, 9] read?
**A.** 3624

**Q.** And the Population [1, 10]?
**A.** 1.12%

**Q.** For KFIWDIINAISSQIRV, which NGS count [1, 9] is on record?
**A.** 146

**Q.** Which results are given for LEANDSLFWDRLLYSL?
**A.** NGS count [2, 7]: 1465; Population [2, 8]: 0.56%

**Q.** How did the NGS count [1, 9] turn out when RNNFIGHLYQALYRIG was run?
**A.** 3120

**Q.** What about the Population [1, 10] of the same sequence?
**A.** 0.96%

**Q.** What does the source list for DWVWEHFFPMEEKDQT?
**A.** NGS count [2, 7]: 1538; Population [2, 8]: 0.59%

**Q.** KMQKWKDALYEAANLS was tested. Which NGS count [1, 3] did it give?
**A.** 4427

**Q.** And the Population [1, 4]?
**A.** 1.66%

**Q.** For DPQDLQWFYERLVSLI, which NGS count [2, 7] is on record?
**A.** 5730

**Q.** And the Population [2, 8]?
**A.** 2.21%
